In PubChem BioAssay AID1259411 (Chemical Carcinogenesis Research Information System (CCRIS), 2018) one finds carcinogen call data, which are given here for eight compounds.

Active and inactive are the calls of the source. How the calls were made is not given here.

For the data set, the system named is rodent carcinogenicity bioassays, tumor incidence. Briefly: CCRIS carcinogenicity studies. An outline of the steps: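 NCI-built, expert-reviewed records of carcinogenicity and related test outcomes (mutagenicity, tumor promotion/inhibition) compiled from published and report sources, historical span 1985-2011, not updated.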

Consider `Clc1cc2oc3c(Cl)c(Cl)c(Cl)cc3c2cc1Cl`, for which the carcinogen call (Species: RAT, Strain/Sex: SPRAGUE-DAWLEY/FEMALE, Route: ORAL, Dose: 0, 6, 20, 44, 92, 200 NG/KG/D (STUDY DURATION: 2 YRS), Dose: 0, 6, 20, 44, 92, 200 NG/KG/D (STUDY DURATION: 2 YRS)) is “inactive; negative”; the carcinogen call (Species: RAT, Strain/Sex: WISTAR/MALE, Route: SUBCUTANEOUS, Dose: 0, 4, 40 UG ONCE IN OLIVE OIL (STUDY DURATION: 104 WK), Dose: 0, 4, 40 UG ONCE IN OLIVE OIL (STUDY DURATION: 104 WK), Tumor Site: Type of Lesion: LIVER: HEPATOCELLULAR CARCINOMA, NODULE, INJECTION SITE: TUMOR) was “active; positive”; the carcinogen call (Species: RAT, Strain/Sex: WISTAR/MALE, Route: SUBCUTANEOUS, Dose: 0, 4, 40 UG ONCE IN OLIVE OIL (STUDY DURATION: 104 WK), Dose: 0, 4, 40 UG ONCE IN OLIVE OIL (STUDY DURATION: 104 WK), Tumor Site: Type of Lesion: LIVER: NODULE, INJECTION SITE: TUMOR) was “active; positive”; the carcinogen call (Species: RAT, Strain/Sex: WISTAR/MALE, Route: SUBCUTANEOUS, Dose: 0, 20 UG IN OLIVE OIL 1/WK INTO BACK FOR 4 WK (STUDY DURATION: 104 WK), Tumor Site: Type of Lesion: LIVER: NODULE, INJECTION SITE: TUMOR) is “active; positive”; the carcinogen call (Species: RAT, Strain/Sex: WISTAR/MALE, Route: SUBCUTANEOUS, Dose: 0, 20 UG IN OLIVE OIL INTO BACK 1/WK FOR 4 WK (STUDY DURATION: 104 WK), Tumor Site: Type of Lesion: LIVER: HEPATOCELLULAR CARCINOMA, NODULE) was “active; positive”; the carcinogen call (Species: Rat, Strain/Sex: Harlan Sprague-Dawley/Female, Route: Gavage, Dose: 0, 200 ng 5 d/wk in corn oil:acetone (99:1) for 30 wk and then vehicle for remainder of 2 yr study, Tumor Site: Type of Lesion: Oral Mucosa: Gingival squamous cell carcinoma (1/53, 3/50) Pancreas: Acinar adenoma or carcinoma (0/53, 2/49)) was “active; positive trend (not statistically significant); for stop study vs. controls, inc”. The carcinogen call (Species: Rat, Strain/Sex: Harlan Sprague-Dawley/Female, Route: Gavage, Dose: 0, 6, 20, 44, 92, 200 ng in corn oil:acetone (99:1) 5 d/wk for 2 yrs, Dose: 0, 6, 20, 44, 92, 200 ng in corn oil:acetone (99:1) 5 d/wk for 2 yrs, Tumor Site: Type of Lesion: Liver: Hepatocellular adenoma (1/53, 0/53, 1/53, 0/52, 2/53, 4/53), Cholangiocarcinoma (0/53, 0/53, 0/53, 1/52, 1/53, 2/) was “active; positive (ntp reports as some evidence; findings in lung, pancreas, and uterus d”.
On to `Nc1ccccc1-c1ccccc1`, for which the carcinogen call (Species: MOUSE, Strain/Sex: B6C3F1/FEMALE, Route: ORAL, Dose: 0, 1000, 3000 PPM IN DIET FOR 103 WK (STUDY DURATION: 103 WK), Dose: 0, 1000, 3000 PPM IN DIET FOR 103 WK (STUDY DURATION: 103 WK), Tumor Site: Type of Lesion: BLOOD VESSELS: HEMANGIOMA, HEMANGIOSARCOMA) is “active; positive”; the carcinogen call (Species: MOUSE, Strain/Sex: B6C3F1/MALE, Route: ORAL, Dose: 0, 1000, 3000 PPM IN DIET FOR 103 WK (STUDY DURATION: 103 WK), Dose: 0, 1000, 3000 PPM IN DIET FOR 103 WK (STUDY DURATION: 103 WK), Tumor Site: Type of Lesion: SPLEEN: HEMANGIOSARCOMA) is given as “equivocal”; the carcinogen call (Species: RAT, Strain/Sex: F344/FEMALE, Route: ORAL, Dose: 0, 1000, 3000 PPM IN DIET FOR 103 WK (STUDY DURATION: 103 WK), Dose: 0, 1000, 3000 PPM IN DIET FOR 103 WK (STUDY DURATION: 103 WK)) was “inactive; negative”; the carcinogen call (Species: RAT, Strain/Sex: F344/MALE, Route: ORAL, Dose: 0, 1000, 3000 PPM IN DIET FOR 103 WK (STUDY DURATION: 103 WK), Dose: 0, 1000, 3000 PPM IN DIET FOR 103 WK (STUDY DURATION: 103 WK)) is “inactive; negative”.
With `COc1cccc2c1cc([N+](=O)[O-])c1c(C(=O)O)cc3c(c12)OCO3`, the carcinogen call (Species: RAT, Strain/Sex: SPRAGUE-DAWLEY/FEMALE, Route: ORAL, GAVAGE, Dose: 50 MG/KG BW/D FOR 3 D (STUDY DURATION: 6 MO), Tumor Site: Type of Lesion: KIDNEY: TUMORS, 29% (THERE WERE 3 MESENCHYMAL TUMORS AND 1 RENAL ONCOCYTOMA IN 14 ANIMALS)) is “active; positive”.
Turning to `Cc1cc(Cl)ccc1OC(C)C(=O)O` (stereo not drawn), the carcinogen call is “inactive; negative” (Species: Mouse, Strain/Sex: B6C3F1/CrlBR/Female (50/Group), Route: Oral, Dose: 0, 25, 250 ppm of 92.7% mecoprop in diet for 18 mo, study duration 18 mo, Dose: 0, 25, 250 ppm of 92.7% mecoprop in diet for 18 mo, study duration 18 mo); “active; positive” (Species: Mouse, Strain/Sex: B6C3F1/CrlBR/Male (50/Group), Route: Oral, Dose: 0, 25, 250 ppm of 92.7% mecoprop in diet for 18 mo, study duration 18 mo, Dose: 0, 25, 250 ppm of 92.7% mecoprop in diet for 18 mo, study duration 18 mo, Tumor Site: Type of Lesion: Lung: carcinoma); “inactive; negative” (Species: Rat, Strain/Sex: Wistar/Female (65/Group), Route: Oral, Dose: 0, 20, 100, 400 ppm of 92.7% mecoprop in diet for 24 mo, study duration 24 mo, Dose: 0, 20, 100, 400 ppm of 92.7% mecoprop in diet for 24 mo, study duration 24 mo); “inactive; negative” (Species: Rat, Strain/Sex: Wistar/Male (65/Group), Route: Oral, Dose: 0, 20, 100, 400 ppm of 92.7% mecoprop in diet for 24 mo, study duration 24 mo, Dose: 0, 20, 100, 400 ppm of 92.7% mecoprop in diet for 24 mo, study duration 24 mo).
With `C[C@H]([C@H](O)CCC(C)(C)O)[C@H]1CC[C@@]2(O)C3=CC(=O)[C@@H]4C[C@@H](O)[C@@H](O)C[C@]4(C)[C@H]3CC[C@]12C`, the carcinogen call by setting is: (Species: MOUSE, Strain/Sex: SWISS/FEMALE, Route: ORAL, Dose: 0, 3 PPM/25 G BW IN DIET FOR 22 MO (STUDY DURATION: 22 MO), Tumor Site: Type of Lesion: MAMMARY GLAND: TUMOR, LUNG: TUMOR) “active; positive”; (Species: MOUSE, Strain/Sex: SWISS/MALE, Route: ORAL, Dose: 0, 3 PPM/25 G BW IN DIET FOR 22 MO (STUDY DURATION: 22 MO), Tumor Site: Type of Lesion: LUNG: TUMOR) “active; positive”.
As for `C1O[C@@H]1[C@H]1CO1`, the carcinogen call (Species: MOUSE, Strain/Sex: B6C3F1/FEMALE, Route: INHALATION, Dose: 0, 2.5, 5.0 PPM 6 HR/D 5 D/WK FOR 6 WK (STUDY DURATION: 84 WK), Dose: 0, 2.5, 5.0 PPM 6 HR/D 5 D/WK FOR 6 WK (STUDY DURATION: 84 WK), Tumor Site: Type of Lesion: HARDERIAN GLAND: TUMOR) was “active; positive” and the carcinogen call (Species: RAT, Strain/Sex: SPRAGUE-DAWLEY/FEMALE, Route: INHALATION, Dose: 0, 2.5, 5.0 PPM 6 HR/D 5 D/WK FOR 6 WK (STUDY DURATION: 84 WK), Dose: 0, 2.5, 5.0 PPM 6 HR/D 5 D/WK FOR 6 WK (STUDY DURATION: 84 WK), Tumor Site: Type of Lesion: NASAL MUCOSA: TUMOR) was “active; positive”.
On to `O=C1OC2(c3ccccc31)c1ccc(O)c(I)c1Oc1c2ccc(O)c1I`, for which the carcinogen call (Species: MOUSE, Strain/Sex: ICR/FEMALE, Route: DERMAL, Dose: 0, 1 MG IN 0.1 ML DISTILLED WATER 2/WK FOR A MEAN TOTAL DOSE OF 132.6 MG (STUDY DURATION: 18 MO)) is “inactive; negative” and the carcinogen call (Species: MOUSE, Strain/Sex: ICR/MALE, Route: DERMAL, Dose: 0, 1 MG IN 0.1 ML DISTILLED WATER 2/WK FOR A MEAN TOTAL DOSE OF 132.6 MG (STUDY DURATION: 18 MO)) was “inactive; negative”.
As for `C1OC1C1CO1` (stereo not drawn), the carcinogen call is “active; positive” (Species: MOUSE, Route: DERMAL, Tumor Site: Type of Lesion: INTEGUMENTARY SYSTEM (SKIN)); “active; positive” (Species: MOUSE, Route: INTRAPERITONEAL, Tumor Site: Type of Lesion: LUNG); “active; positive” (Species: MOUSE, Route: SUBCUTANEOUS, Tumor Site: Type of Lesion: INJECTION SITE); “active; positive” (Species: MOUSE, Strain/Sex: B6C3F1/FEMALE, Route: INHALATION, Dose: 0, 2.5, 5.0 PPM 6 HR/D 5 D/WK FOR 6 WK (STUDY DURATION: 18 MONTHS), Dose: 0, 2.5, 5.0 PPM 6 HR/D 5 D/WK FOR 6 WK (STUDY DURATION: 18 MONTHS), Tumor Site: Type of Lesion: HARDERIAN GLAND: TUMOR); “active; positive” (Species: RAT, Route: SUBCUTANEOUS, Tumor Site: Type of Lesion: INJECTION SITE); “active; positive” (Species: RAT, Strain/Sex: SPRAGUE-DAWLEY/FEMALE, Route: INHALATION, Dose: 0, 2.5, 5.0 PPM 6 HR/D 5 D/WK FOR 6 WK (STUDY DURATION: 18 MONTHS), Dose: 0, 2.5, 5.0 PPM 6 HR/D 5 D/WK FOR 6 WK (STUDY DURATION: 18 MONTHS), Tumor Site: Type of Lesion: NASAL MUCOSA: TUMOR).
